This note sets out measurements from patent US9949946B2, “Inclusion complexes of pinocembrin with cyclodextrin or its derivatives” (CSPC ZHONGQI PHARMACEUTICAL TECHNOLOGY (SHIJIAZHUANG) CO., …, priority 2008, dated 2018).

Some results are limits rather than exact numbers.

Data set [1] in a line: Determination of the solubility of pinocembrin. It counts as physicochemical. The conditions noted are these: water. Here is the method: Through using cyclodextrin or its derivative to include pinocembrin and make pinocembrin molecules entrap in the tubular structure of cyclodextrin or its derivative, and therefore obtain the inclusion complex of pinocembrin with cyclodextrin or its derivative, the water-solubility of pinocembrin is enhanced greatly. […] The specific results are shown in Example 10.
In order to screen solubilizer, cosolvent and non-aqueous solvent useful for injection, a series of experiments were conducted with their general dosages respectively to determine the solubilization effect of pinocembrin.
The solubilities in Table 1 are the solubilities of pinocembrin.

The subject of data set [2] is MCAO operation-injured rats. The data set can be described thus: MCAO model, rCBF of the rat acute cerebral ischemia tissue. It counts as in vivo. The settings on record: 30 minutes after the cerebral ischemia, 3 mg/kg. The procedure:
Assay Method: The assay was conducted according to the MCAO model method as reported in the literature (Zhang Juntian, Modern Experimental Methods in Pharmacology, October 1998, the First Edition, the United Press of Beijing Medical University and Peking Union Medical College).
The rCBF (regional cerebral blood flow) value in the cortex medium-sized arterial blood-supplying area reduced rapidly to 20˜30% of the pre-operation basal level because of the MCAO operation. 24 hours after ischemia (pre-decapitation), the collateral circulation compensation established and the rCBF value increased a little compared with the value during the operation, but still below 50% of the basal level.
30 minutes after the cerebral ischemia, the rCBF value of the vehicle group was 31.09±5.35% of the basal value, and the rCBF values of the administration groups, i.e., the inclusion complex DL0108 group (1 mg/kg, 3 mg/kg, 10 mg/kg) and the nimodipine group, were 40.76±6.58%, 50.09±7.09%, 53.28±8.03%, 55.58±6.09% of the basal value respectively. […] The DL0108 (3, 10 mg/kg) group and the nimodipine (3 mg/kg) group had significant differences from the vehicle group (P<0.05).

Broadly, the solubility is how much of the substance goes into solution per volume. Regarding `O=C1CC(c2ccccc2)Oc2cc(O)cc(O)c21` (centres unmarked) [pinocembrin, 2,3-Dihydro-5,7-dihydroxy-2-phenyl-4H-1-benzopyran-4-one], the solubility in data set [1] was under 0.2 mg/mL. As for `COCCOC(=O)C1=C(C)NC(C)=C(C(=O)OC(C)C)C1c1cccc([N+](=O)[O-])c1` (centres unmarked) [nimodipine], the rCBF value in data set [2] is given as 55.58±6.09 % of the basal value.
